Results on six molecules are retold here after patent publication US6080790A, “Tri-substituted phenyl derivatives and processes for their preparations” (priority 1992, dated 2000).

The subject of one data set is PDE IV, HL60 cells. Put plainly: Isolated enzyme, inhibition of PDE IV from HL60 cells. In kind it is biochemical. The settings on record: 0.1 μM [3H]-cAMP, pH 7.5, 30° C.; "Ki PDEIV HL60 at 1 μM"; read-out: approximate Ki value (PDE IV HL60). The procedure:
1. Isolated Enzyme The potency and selectivity of the compounds of the invention was determined using a battery of distinct PDE isoenzymes as follows: iv. PDE IV, HL60 cells. The enzymes were purified to kinetic homogeneity using standard chromatographic techniques. Phosphodiesterase activity was assayed as follows. The reaction was conducted in 150 μl of standard mixture containing (final concentrations): 50 mM TES-NaOH buffer (pH 7.5), 10 mM MgCl2, 0.1 μM [^3 H]-cAMP and vehicle or various concentrations of the test compounds. The reaction was initiated by addition of enzyme and conducted at 30° C. for between 5 to 30 mins. […] An aliquot of the sample was then applied to a column of neutral alumina and the […] eluted with 10 ml 0.1 TES-NaOH buffer (pH8). […] Recovery of [3H]-5'AMP was determined using the [^14 C]-5'AMP and all assays were conducted in the linear range of the reaction.

A further data set relates to right atrial muscle. The settings on record: reference substances, general statement; cited from earlier work.
The test system of another data set is papillary muscle. To be noted: reference substances, general statement; cited from earlier work.
The conditions of data set [1]: used in asthma as a bronchodilator; cited from earlier work.

Structures can show the parent of a compound that is named as a salt.

Consider `COc1ccc(-c2cncc3ccccc23)cc1OC1CCCC1` [Example 2, 4-(3-Cyclopentyloxy-4-methoxyphenyl)isoquinoline], for which the inhibition constant Ki (in general, a measure of affinity in units of concentration, obtained from inhibition or displacement) in the data set with PDE IV, HL60 cells is ~180 nM. Same read-out and setting: the result for `COc1ccc(-c2cccnc2)cc1OC1CCCC1` [Example 4, 3-(3-Cyclopentyloxy-4-methoxyphenyl)pyridine hydrochloride] reads ~270 nM.

Take `COc1ccc(-c2cccc([N+](=O)[O-])c2)cc1OC1CCCC1` [Example 7, 2-Cyclopentyloxy-4-(3-nitrophenyl)anisole]: in the data set on PDE IV, HL60 cells, the Ki was ~250 nM. Regarding `Cc1[nH]c(=O)c(C#N)cc1-c1ccncc1` [milrinone], the “direct chronotropic effect (reference PDE inhibitors)” value in the data set with right atrial muscle is “positive chronotropic and inotropic effects”. Further, the “direct inotropic effect (reference PDE inhibitors)” value in the data set with papillary muscle is “positive chronotropic and inotropic effects”.

For the molecule `COc1ccc(C2CNC(=O)C2)cc1OC1CCCC1` (centres unmarked) [rolipram], in the data set on right atrial muscle, the “direct chronotropic effect (reference PDE inhibitors)” value is listed as “do not have any direct effects”. Moreover, the “direct inotropic effect (reference PDE inhibitors)” value with papillary muscle is listed as “do not have any direct effects”. As to `Cn1c(=O)c2[nH]cnc2n(C)c1=O` [theophylline], in data set [1], the cardiovascular changes entry was “significant cardiovascular changes such as tachycardia”.
